Test results reported in patent US20220356174A1, “PYRIDIN-2-ONE COMPOUNDS USEFUL AS SMARCA2 ANTAGONISTS” (Epizyme, Inc., priority 2018, published 2022).
Where two headings read alike, the source gives them in different places.

How the values were obtained:
[1] = target: FL-SMARCA4 (Homo sapiens, UniProt P51532); experiment: SMARCA4 ATPase activity assay (ADP-Glo, chicken mononucleosome substrate)
[2] = target: T1, FL-SMARCA2 (full-length human SMARCA2 isoform 1) (Homo sapiens, UniProt P51531); experiment: SMARCA2 ATPase activity assay (ADP-Glo, chicken mononucleosome substrate); assay type: biochemical; details: ATPase assay, enzyme 5 nM, ATP 250 uM, chicken mononucleosome 10 nM, 30 min preincubation
T1 construct: FLAG tag (YKDDDDK) (C); made in house; host or cells: Sf21 insect cells (baculovirus, pFastBacI)
T1 sequence (P51531 with tags, fused parts or gaps): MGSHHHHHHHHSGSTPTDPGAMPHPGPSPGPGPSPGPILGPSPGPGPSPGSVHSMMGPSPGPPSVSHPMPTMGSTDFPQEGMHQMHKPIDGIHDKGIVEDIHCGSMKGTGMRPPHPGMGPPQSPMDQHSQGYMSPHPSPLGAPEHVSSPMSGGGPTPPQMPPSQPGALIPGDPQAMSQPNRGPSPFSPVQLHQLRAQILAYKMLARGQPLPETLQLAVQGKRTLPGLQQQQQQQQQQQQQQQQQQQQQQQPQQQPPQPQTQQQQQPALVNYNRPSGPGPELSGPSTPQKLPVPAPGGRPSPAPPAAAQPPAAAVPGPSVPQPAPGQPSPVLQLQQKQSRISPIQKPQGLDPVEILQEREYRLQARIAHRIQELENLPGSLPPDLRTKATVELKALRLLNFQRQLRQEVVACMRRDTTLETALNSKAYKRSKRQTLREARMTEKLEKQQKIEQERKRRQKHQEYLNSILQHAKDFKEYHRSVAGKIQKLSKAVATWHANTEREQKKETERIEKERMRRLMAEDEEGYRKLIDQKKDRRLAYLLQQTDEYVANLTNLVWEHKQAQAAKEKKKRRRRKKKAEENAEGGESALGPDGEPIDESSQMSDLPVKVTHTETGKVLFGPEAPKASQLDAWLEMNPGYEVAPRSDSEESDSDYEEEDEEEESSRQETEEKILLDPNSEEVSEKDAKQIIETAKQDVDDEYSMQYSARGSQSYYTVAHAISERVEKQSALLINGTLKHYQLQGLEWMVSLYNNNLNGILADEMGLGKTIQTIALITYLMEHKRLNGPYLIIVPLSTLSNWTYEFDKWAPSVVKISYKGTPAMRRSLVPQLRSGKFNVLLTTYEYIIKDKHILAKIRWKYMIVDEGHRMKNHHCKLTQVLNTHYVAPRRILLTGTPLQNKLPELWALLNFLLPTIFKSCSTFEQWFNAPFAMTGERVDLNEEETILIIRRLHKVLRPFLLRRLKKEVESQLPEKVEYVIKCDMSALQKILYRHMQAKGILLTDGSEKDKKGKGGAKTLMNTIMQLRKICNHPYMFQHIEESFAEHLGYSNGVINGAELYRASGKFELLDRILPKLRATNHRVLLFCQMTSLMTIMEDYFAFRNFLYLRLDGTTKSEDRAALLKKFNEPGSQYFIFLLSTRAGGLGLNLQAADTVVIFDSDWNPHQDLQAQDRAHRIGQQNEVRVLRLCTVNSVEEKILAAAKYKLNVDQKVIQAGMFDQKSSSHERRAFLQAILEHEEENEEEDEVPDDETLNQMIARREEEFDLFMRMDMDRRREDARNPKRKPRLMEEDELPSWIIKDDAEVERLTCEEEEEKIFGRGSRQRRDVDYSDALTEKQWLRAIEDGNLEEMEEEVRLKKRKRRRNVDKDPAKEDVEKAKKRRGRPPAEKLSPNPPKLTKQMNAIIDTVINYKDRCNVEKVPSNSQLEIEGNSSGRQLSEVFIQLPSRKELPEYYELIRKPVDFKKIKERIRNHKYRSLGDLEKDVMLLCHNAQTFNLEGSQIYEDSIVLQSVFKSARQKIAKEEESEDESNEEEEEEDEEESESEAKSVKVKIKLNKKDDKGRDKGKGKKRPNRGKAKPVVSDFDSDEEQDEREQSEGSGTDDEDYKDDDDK

[3] = test system: H358 cells; experiment: High-throughput proliferation (HTP) assay for H358 cells (CellTiter-Glo, 7 days); assay type: cell-based; details: Homo sapiens, NCI-H358, 168 h, read-out: H358 SMARCA2 IC50
Procedure: Thawing vials: H358 cells (ATCC #CRL-5807™) were thawed from a cryovial containing approximately 1.6×10^6 cells frozen in 70% RPMI 1640 medium, 20% HI-FBS and 10% DMSO. Cells were thawed by submerging the bottom half of the vial in a 37° C. water bath and gently flicked until almost thawed. The cells were removed and transferred into a 15 mL conical tube containing 9 mL RPMI 1640 medium+10% HI-FBS and then centrifuged 200×g for 4 min before drawing off the media without disturbing the cell pellet to remove the DMSO. The cells were resuspended again in 15 mL of RPMI 1640 fresh complete media+10% HI-FBS and grown up in a T75 flask at 37° C. with 5% CO2 Incubator. Viability was measured to obtain baseline.
Preparing frozen stock vials: Cell density was counted in a stock flask. The culture was transferred to a 50 mL conical tube and spun down to remove medium, and then resuspend at 1-2×10^6 cells/mL in complete medium containing 10% DMSO and transferred to a 1 mL per vial.
(§1) Routine subculture: Sub-confluent cultures (70-80%) were split every 4 days, seeding out at 1-2×10^6 cells/75 cm^2.
Day 0: Assay ready plates were prepared by dispensing 50 nL of compound stock or DMSO in the appropriate wells of 384-well white CulturPlates using Echo550. Using the Multiflo, H358 cells at 50 μL/well were plated in RPMI 1640 complete media+10% HI-FBS+1% pen/strep at cell density determined [20,000 cells/mL (1,000 cells/well)] from growth curve. Treated cells were inclubated at 37° C., 5% CO2, relative humidity >90% for 7 days. CellTiter-Glo (CTG) ATP detection reagent was prepared according to manufacturer's specifications. Cell assay plates were removed from incubator and bring to room temperature (RT).
Using the MultiDrop liquid handler, 30 μL of CTG were added per well. Plates were placed on the multidrop dispenser shake for 5 seconds at RT. Plates were incubated for 30 minutes in the dark at RT before measuring luminescence using the Envison2104.
Data analysis: Using the DMSO control wells as the 0% inhibition (high signal) control and the 10 uM Doxorubicin control wells as the 100% inhibition (low signal) control, percent inhibition EC50s (inflection point) and IC50s were calculated for the compound dose responses.

[4] = test system: A549 cells; experiment: High-throughput proliferation (HTP) assay for A549 cells (CellTiter-Glo, 7 days); assay type: cell-based; details: Homo sapiens, 168 h, read-out: A549 SMARCA2 IC50
Procedure: Thawing vials: A549 cells (ATCC #CCL-185™) were thawed from a cryovial containing approximately 1.6×10^6 cells frozen in 70% F12K medium, 20% HI-FBS and 10% DMSO. Cells were thawed by submerging the bottom half of the vial in a 37° C. water bath and gently flicked until almost thawed. The cells were transferred into a 15 mL conical tube containing 9 mL of F12K medium+10% HI-FBS and then centrifuged at 200×g for 4 min before drawing off the media without disturbing the cell pellet in order to remove the DMSO. The cells were resuspended again in 15 mL of F12K fresh complete media+10% HI-FBS and grown up in a T75 flask at 37° C. with 5% CO2 Incubator. Viability was measured to obtain baseline.
Frozen stock vials preparation: The cell culture was transferred to a 50 mL conical tube, spun down to remove medium, and resuspended at 1-2×10^6 cells/mL in complete medium containing 10% DMSO. The culture was then stored for 24 hours at −80 degree C., (with the initial rate of freezing is −1 degree C. per minute in a freezing container), then transferred and stored in liquid nitrogen.
as §1
Day 0: Assay ready plates were prepared by dispensing 50 nL of compound or DMSO in the appropriate wells of 384-well white CulturPlates using Echo550. Using the Multiflo, A549 cells were plated at 50 μL/well in F12K complete media+10% HI-FBS+1% pen/strep at cell density determined [1,250 cells/mL (62.5 cells/well)] from growth curve.
Treated cells were incubated at 37° C., 5% CO2, relative humidity >90% for 7 days. CellTiter-Glo (CTG) ATP detection reagent was prepared according to manufacturer's specifications. Cell assay plates were removed from the incubator and brought to room temperature (RT). Using the MultiDrop liquid handler, 30 μL of CTG were added per well. Plates were placed on the multidrop dispenser shake for 5 seconds at room temperature (RT). Plates were incubated for 30 minutes in the dark at RT before measuring luminescence using the Envison2104.
Data analysis: Using the DMSO control wells as the 0% inhibition (high signal) control and the 10 μM Doxorubicin control wells as the 100% inhibition (low signal) control, percent inhibition EC50s (inflection point) and IC50 s were calculated for the compound dose responses.

[5] = FL-SMARCA4 IC>50, Table 3c.2, ATPase assay, enzyme 5 nM, ATP 250 uM, chicken mononucleosome 10 nM, 30 min preincubation
[6] = Table 3d.1, read-out: FL-SMARCA2 IC>50

Sequence of FL-SMARCA4 (P51532 whole entry, canonical isoform): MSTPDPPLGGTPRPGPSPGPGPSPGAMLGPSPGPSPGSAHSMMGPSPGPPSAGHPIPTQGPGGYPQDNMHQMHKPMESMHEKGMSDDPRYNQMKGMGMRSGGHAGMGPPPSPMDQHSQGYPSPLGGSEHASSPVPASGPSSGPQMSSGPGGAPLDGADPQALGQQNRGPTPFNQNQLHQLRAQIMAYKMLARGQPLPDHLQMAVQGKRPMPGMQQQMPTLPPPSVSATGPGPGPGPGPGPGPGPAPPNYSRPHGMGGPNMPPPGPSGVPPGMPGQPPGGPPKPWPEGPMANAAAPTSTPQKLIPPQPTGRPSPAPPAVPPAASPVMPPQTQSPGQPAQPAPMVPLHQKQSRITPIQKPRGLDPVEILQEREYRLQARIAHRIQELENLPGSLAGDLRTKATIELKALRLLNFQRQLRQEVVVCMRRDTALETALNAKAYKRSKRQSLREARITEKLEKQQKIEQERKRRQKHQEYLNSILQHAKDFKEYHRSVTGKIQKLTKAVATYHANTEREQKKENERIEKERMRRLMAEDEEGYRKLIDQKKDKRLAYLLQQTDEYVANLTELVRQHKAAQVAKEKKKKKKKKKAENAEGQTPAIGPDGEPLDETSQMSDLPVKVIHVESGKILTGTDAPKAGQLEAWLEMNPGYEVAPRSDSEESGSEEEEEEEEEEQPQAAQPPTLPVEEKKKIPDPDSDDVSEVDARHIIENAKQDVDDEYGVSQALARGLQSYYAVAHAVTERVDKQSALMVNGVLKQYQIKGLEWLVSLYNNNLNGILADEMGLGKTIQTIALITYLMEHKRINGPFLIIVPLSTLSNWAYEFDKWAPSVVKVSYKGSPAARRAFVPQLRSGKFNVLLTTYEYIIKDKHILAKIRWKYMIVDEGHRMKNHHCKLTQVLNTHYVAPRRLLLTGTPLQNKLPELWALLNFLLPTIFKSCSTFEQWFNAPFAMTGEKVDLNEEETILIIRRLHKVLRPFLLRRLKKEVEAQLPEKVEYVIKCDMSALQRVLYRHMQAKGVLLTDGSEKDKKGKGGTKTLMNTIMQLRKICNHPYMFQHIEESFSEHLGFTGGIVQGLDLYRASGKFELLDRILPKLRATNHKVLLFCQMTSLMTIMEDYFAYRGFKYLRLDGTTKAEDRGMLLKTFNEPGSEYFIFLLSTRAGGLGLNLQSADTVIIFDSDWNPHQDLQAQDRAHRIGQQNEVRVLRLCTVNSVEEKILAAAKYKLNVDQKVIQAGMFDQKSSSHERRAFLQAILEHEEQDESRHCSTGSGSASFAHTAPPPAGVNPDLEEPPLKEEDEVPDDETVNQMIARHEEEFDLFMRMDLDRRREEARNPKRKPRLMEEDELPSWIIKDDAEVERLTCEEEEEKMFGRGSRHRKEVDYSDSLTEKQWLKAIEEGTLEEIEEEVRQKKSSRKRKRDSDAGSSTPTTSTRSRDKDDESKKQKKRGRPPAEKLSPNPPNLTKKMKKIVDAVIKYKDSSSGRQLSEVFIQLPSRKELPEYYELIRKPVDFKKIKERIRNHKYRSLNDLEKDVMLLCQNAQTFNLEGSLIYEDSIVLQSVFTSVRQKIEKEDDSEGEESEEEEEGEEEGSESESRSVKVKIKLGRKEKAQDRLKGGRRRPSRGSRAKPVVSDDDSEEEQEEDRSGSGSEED

IC50 [1, 5] [nM]	IC50 ([2]; Table 3c.1) [nM]	IC50 [3] [nM]	IC50 [4] [nM]	IC50 ([1]; FL-SMARCA4 IC50) [nM]	IC50 [2, 6] [nM]	Structure (SMILES)
379	132	2030	1190			O=C(Nc1cc(F)c(=O)n(CC(F)F)c1)c1cc(C#Cc2ccncn2)c(Cl)s1 [Compound 59c]
492	251	> 10000	> 10000			Cn1cnc(C#Cc2cc(C(=O)Nc3cc(F)c(=O)n(CC(F)F)c3)sc2Cl)c1 [Compound 60c]
		> 10000	3650	36.3	18	Cn1cc(C#Cc2cc(C(=O)Nc3cc(F)c(=O)n(CC(F)F)c3)sc2Cl)ccc1=O [Compound 60d]
86.7	26.7	> 10000	1510			Cc1nc(C#Cc2cc(C(=O)Nc3cc(F)c(=O)n(CC(F)F)c3)sc2Cl)cs1 [Compound 61c]
		> 10000	4330	655	197	COc1cncc(C#Cc2cc(C(=O)Nc3cc(F)c(=O)n(CC(F)F)c3)sc2Cl)c1 [Compound 61d]
		> 10000	> 10000	57.1	22.5	O=C1C[C@@H](C#Cc2cc(C(=O)Nc3cc(F)c(=O)n(CC(F)F)c3)sc2Cl)CCN1 [Compound 62d]
100	33.3	> 10000	2290			Cc1cc(C#Cc2cc(C(=O)Nc3cc(F)c(=O)n(CC(F)F)c3)sc2Cl)on1 [Compound 63c]
		> 10000	> 10000	518	165	O=C1C[C@H](C#Cc2cc(C(=O)Nc3cc(F)c(=O)n(CC(F)F)c3)sc2Cl)CCN1 [Compound 63d]
		> 10000	3810	498	165	N#Cc1cncc(C#Cc2cc(C(=O)Nc3cc(F)c(=O)n(CC(F)F)c3)sc2Cl)c1 [Compound 64d]
154	33.7	> 10000	4320			O=C(Nc1cc(F)c(=O)n(CC(F)F)c1)c1cc(C#Cc2cccnc2)c(C(F)(F)F)s1 [Compound 65c]
		> 10000	> 10000	7790	2360	Cn1ccc(C#Cc2cc(C(=O)Nc3cc(F)c(=O)n(CC(F)F)c3)sc2Cl)cc1=O [Compound 65d]
772	236	> 10000	> 10000			CN1CCn2c(C#Cc3cc(C(=O)Nc4cc(F)c(=O)n(CC(F)F)c4)sc3Cl)cnc2C1 [Compound 66c]
807	371	> 10000	> 10000			Cn1cnc(C#Cc2cc(C(=O)Nc3cc(F)c(=O)n(CC(F)F)c3)sc2Cl)n1 [Compound 67c]
		> 10000	2120	37.2	14.6	CNC(=O)c1ncc(C#Cc2cc(C(=O)Nc3cc(F)c(=O)n(CC(F)F)c3)sc2Cl)o1 [Compound 67d]
121	67.1	> 10000	5910			NC(=O)c1ccc(C#Cc2cc(C(=O)Nc3cc(F)c(=O)n(CC(F)F)c3)sc2Cl)cc1 [Compound 68c]
		> 10000	2410	205	72.5	O=C(Nc1cc(F)c(=O)n(CC(F)F)c1)c1cc(C#CC2CCCOC2)c(Cl)s1 (stereo not shown) [Compound 68d]

IC50 [1, 5] [nM]	IC50 ([2]; Table 3c.1) [nM]	IC50 [3] [nM]	IC50 [4] [nM]	IC50 ([1]; FL-SMARCA4 IC50) [nM]	IC50 [2, 6] [nM]	Structure (SMILES)
		> 10000	2040	120	26.6	N#Cc1cc(C(=O)Nc2cc(F)c(=O)n(CC(F)F)c2)sc1C(F)F [Compound 69d]
385	260	9160	6250			Cc1cnc(C#Cc2cc(C(=O)Nc3cc(F)c(=O)n(CC(F)F)c3)sc2Cl)s1 [Compound 70c]
		9840	1960	4750	1690	O=C(Nc1cc(F)c(=O)n(CC(F)F)c1)c1cc(C#CC(=O)N2CCCC2)c(Cl)s1 [Compound 70d]
304	92	> 10000	1950			Cc1cnc(C#Cc2cc(C(=O)Nc3cc(F)c(=O)n(CC(F)F)c3)sc2Cl)o1 [Compound 71c]
		4090	2380	1260	536	CN(C)C(=O)C#Cc1cc(C(=O)Nc2cc(F)c(=O)n(CC(F)F)c2)sc1Cl [Compound 71d]
1550	210	> 10000	4500			O=C(Nc1ccc(=O)n(CC(F)F)c1)c1cc(Cl)c(C(F)(F)F)s1 [Compound 72c]
		> 10000	5760	1310	481	CNC(=O)C#Cc1cc(C(=O)Nc2cc(F)c(=O)n(CC(F)F)c2)sc1Cl [Compound 72d]
2930	847	> 10000	6010			O=C(Nc1cc(F)c(=O)n(CC(F)F)c1)c1cc(C#CC2COC2)cs1 [Compound 73c]
		> 10000	1810	32.7	10.9	O=C(Nc1cc(F)c(=O)n(CC(F)F)c1)c1cc(C#C[C@H]2C[C@H](O)C2)c(Cl)s1 [Compound 73d]
245	67.5	> 10000	3930			CN(C)C(=O)c1cccc(C#Cc2cc(C(=O)Nc3cc(F)c(=O)n(CC(F)F)c3)sc2Cl)c1 [Compound 74c]
		2440	1650	1010	462	O=C(Nc1cc(F)c(=O)n(CC(F)F)c1)c1cc(C#CC(F)(F)F)c(Cl)s1 [Compound 74d]
54.5	20	> 10000	1780			CC(=O)Nc1cccc(C#Cc2cc(C(=O)Nc3cc(F)c(=O)n(CC(F)F)c3)sc2Cl)c1 [Compound 75c]
		> 10000	> 10000	11300	948	Cc1cc(NC(=O)c2cc(C#N)c(C(F)(F)F)s2)cn(CC(F)F)c1=O [Compound 75d]
		> 10000	> 10000	10200	1310	N#Cc1cc(C(=O)Nc2cc(C(F)F)c(=O)n(CC(F)F)c2)sc1C(F)(F)F [Compound 76d]
		> 10000	7440	463	160	O=C(Nc1cc(F)c(=O)n(CC(F)F)c1)c1cc(C#CC2CCO2)c(Cl)s1 (stereo not shown) [Compound 77d]
